# How the values were obtained:
# Assay type in all cases: functional
# [1] = test system: MOLT-4; experiment: Cytotoxicity against human MOLT4 cells assessed as cell growth level at 100 uM after 48 hrs by sulforhodamine B assay
# [2] = test system: CCRF-CEM; experiment: Cytotoxicity against human CCRF-CEM cells after 48 hrs by sulforhodamine B assay
# [3] = test system: SW-620; experiment: Cytotoxicity against human SW620 cells assessed as cell growth level at 100 uM after 48 hrs by sulforhodamine B assay
# [4] = test system: RPMI-8226; experiment: Cytotoxicity against human RPMI8226 cells after 48 hrs by sulforhodamine B assay; conditions: RPMI-8226, 48 h
# [5] = test system: HCT-116; experiment: Cytotoxicity against human HCT116 cells assessed as cell growth level at 100 uM after 48 hrs by sulforhodamine B assay
# [6] = test system: SK-MEL-2; experiment: Cytotoxicity against human SK-MEL-2 cells assessed as cell growth level at 1 uM after 48 hrs by sulforhodamine B assay
# [7] = test system: Malme-3M; experiment: Cytotoxicity against human MALME-3M cells assessed as cell growth level at 1 uM after 48 hrs by sulforhodamine B assay
# [8] = test system: HL-60(TB); experiment: Cytotoxicity against human HL-60(TB) cells after 48 hrs by sulforhodamine B assay; conditions: HL-60, 48 h
# [9] = test system: SK-MEL-5; experiment: Cytotoxicity against human SK-MEL-5 cells assessed as cell growth level at 100 uM after 48 hrs by sulforhodamine B assay
# [10] = test system: U-251; experiment: Cytotoxicity against human U251 cells after 48 hrs by sulforhodamine B assay; conditions: U-251, 48 h
# [11] = test system: SF-268; experiment: Cytotoxicity against human SF268 cells assessed as cell growth level at 100 uM after 48 hrs by sulforhodamine B assay
# [12] = test system: SN12C; experiment: Cytotoxicity against human SN12C cells assessed as cell growth level at 10 nM after 48 hrs by sulforhodamine B assay
# [13] = test system: BT-549; experiment: Cytotoxicity against human BT549 cells assessed as cell growth level at 100 uM after 48 hrs by sulforhodamine B assay
# [14] = test system: A498; experiment: Cytotoxicity against human A498 cells after 48 hrs by sulforhodamine B assay; conditions: A498, 48 h
# [15] = test system: NCI-H322M; experiment: Cytotoxicity against human NCI-H322M cells after 48 hrs by sulforhodamine B assay
# [16] = test system: HCC 2998; experiment: Cytotoxicity against human HCC2998 cells assessed as cell growth level at 1 uM after 48 hrs by sulforhodamine B assay
# [17] = test system: MOLT-4; experiment: Cytotoxicity against human MOLT4 cells assessed as cell growth level at 10 nM after 48 hrs by sulforhodamine B assay
# [18] = test system: COLO 205; experiment: Cytotoxicity against human COLO205 cells after 48 hrs by sulforhodamine B assay; conditions: COLO 205, 48 h
# [19] = test system: MDA-MB-468; experiment: Cytotoxicity against human MDA-MB-468 cells assessed as cell growth level at 100 nM after 48 hrs by sulforhodamine B assay
# [20] = test system: NCI-H460; experiment: Cytotoxicity against human NCI-H460 cells after 48 hrs by sulforhodamine B assay; conditions: NCI-H460, 48 h
# [21] = test system: UACC-62; experiment: Cytotoxicity against human UACC62 cells assessed as cell growth level at 10 uM after 48 hrs by sulforhodamine B assay
# [22] = test system: KM12; experiment: Cytotoxicity against human KM12 cells assessed as cell growth level at 10 nM after 48 hrs by sulforhodamine B assay
# [23] = test system: SF-295; experiment: Cytotoxicity against human SF295 cells assessed as cell growth level at 10 nM after 48 hrs by sulforhodamine B assay
# [24] = test system: HT-29; experiment: Cytotoxicity against human HT-29 cells assessed as cell growth level at 1 uM after 48 hrs by sulforhodamine B assay
# [25] = test system: MDA-MB-435; experiment: Cytotoxicity against human MDA-MB-435 cells assessed as cell growth level at 100 nM after 48 hrs by sulforhodamine B assay
# [26] = test system: HOP-62; experiment: Cytotoxicity against human HOP62 cells after 48 hrs by sulforhodamine B assay; conditions: HOP-62, 48 h
# [27] = test system: NCI-H23; experiment: Cytotoxicity against human NCI-H23 cells after 48 hrs by sulforhodamine B assay; conditions: NCI-H23, 48 h
# [28] = test system: CAKI-1; experiment: Cytotoxicity against human CAKI-1 cells assessed as cell growth level at 100 nM after 48 hrs by sulforhodamine B assay
# [29] = test system: COLO 205; experiment: Cytotoxicity against human COLO205 cells assessed as cell growth level at 100 uM after 48 hrs by sulforhodamine B assay
# [30] = test system: NCI-H522; experiment: Cytotoxicity against human NCI-H522 cells after 48 hrs by sulforhodamine B assay; conditions: NCI-H522, 48 h
# [31] = test system: MDA-MB-231; experiment: Cytotoxicity against human MDA-MB-231/ATCC cells assessed as cell growth level at 100 nM after 48 hrs by sulforhodamine B assay
# [32] = test system: UACC-257; experiment: Cytotoxicity against human UACC257 cells assessed as cell growth level at 10 nM after 48 hrs by sulforhodamine B assay
# [33] = read-out: LC50 (the source's name)
# [34] = read-out: pLC50 (the source's name) (converted)
structure (smiles),measurement,setting,value
O=c1oc2ccccc2cc1-c1csc(N/N=C/c2c[nH]c3ccccc23)n1,Activity,[1],-40%
same,GI50,[2]; read-out: GI50,0.33 µM
same,LC50,[2]; read-out: LC50,> 100 µM
same,TGI,[2]; read-out: TGI,1.78 µM
same,GI50,[2]; read-out: pGI50 (converted),0.339 µM
same,LC50,[2]; read-out: pLC50 (converted),> 100 µM
same,TGI,[2]; read-out: pTGI (converted),1.78 µM
same,Activity,[3],-7%
same,GI50,[4]; read-out: GI50,0.9 µM
same,CC50,[4]; [33],> 100 µM
same,TGI,[4]; read-out: TGI,4.79 µM
same,GI50,[4]; read-out: pGI50 (converted),0.912 µM
same,CC50,[4]; [34],> 100 µM
same,TGI,[4]; read-out: pTGI (converted),4.79 µM
same,Activity,[5],-66%
same,Activity,[6],90%
same,Activity,[7],93%
same,GI50,[8]; read-out: GI50,0.45 µM
same,CC50,[8]; [33],> 100 µM
same,TGI,[8]; read-out: TGI,7.64 µM
same,GI50,[8]; read-out: pGI50 (converted),0.457 µM
same,CC50,[8]; [34],> 100 µM
same,TGI,[8]; read-out: pTGI (converted),7.59 µM
same,Activity,[9],-46%
same,GI50,[10]; read-out: GI50,1.75 µM
same,CC50,[10]; [33],77.7 µM
same,TGI,[10]; read-out: TGI,5.6 µM
same,GI50,[10]; read-out: pGI50 (converted),1.74 µM
same,CC50,[10]; [34],77.6 µM
same,TGI,[10]; read-out: pTGI (converted),5.62 µM
same,Activity,[11],-21%
same,Activity,[12],88%
same,Activity,[13],-88%
same,GI50,[14]; read-out: GI50,2.21 µM
same,CC50,[14]; [33],> 100 µM
same,TGI,[14]; read-out: TGI,8.2 µM
same,GI50,[14]; read-out: pGI50 (converted),2.19 µM
same,CC50,[14]; [34],> 100 µM
same,TGI,[14]; read-out: pTGI (converted),8.13 µM
same,GI50,[15]; read-out: GI50,3.16 µM
same,LC50 (concentration killing 50% of cells),[15]; read-out: LC50,> 100 µM
same,TGI,[15]; read-out: TGI,32.2 µM
same,GI50,[15]; read-out: pGI50 (converted),3.16 µM
same,LC50 (concentration killing 50% of cells),[15]; read-out: pLC50 (converted),> 100 µM
same,TGI,[15]; read-out: pTGI (converted),32.4 µM
same,Activity,[16],84%
same,Activity,[17],92%
same,GI50,[18]; read-out: GI50,1.92 µM
same,LC50 (concentration killing 50% of cells),[18]; read-out: LC50,6.55 µM
same,TGI,[18]; read-out: TGI,3.55 µM
same,GI50,[18]; read-out: pGI50 (converted),1.91 µM
same,LC50 (concentration killing 50% of cells),[18]; read-out: pLC50 (converted),6.61 µM
same,TGI,[18]; read-out: pTGI (converted),3.55 µM
same,Activity,[19],83%
same,GI50,[20]; read-out: GI50,2.84 µM
same,LC50,[20]; read-out: LC50,> 100 µM
same,TGI,[20]; read-out: TGI,9.69 µM
same,GI50,[20]; read-out: pGI50 (converted),2.82 µM
same,LC50,[20]; read-out: pLC50 (converted),> 100 µM
same,TGI,[20]; read-out: pTGI (converted),9.77 µM
same,Activity,[21],42.96%
same,Activity,[22],99%
same,Activity,[23],93%
same,Activity,[24],89%
same,Activity,[25],99%
same,GI50,[26]; read-out: GI50,3.73 µM
same,LC50,[26]; read-out: LC50,> 100 µM
same,TGI,[26]; read-out: TGI,20 µM
same,GI50,[26]; read-out: pGI50 (converted),3.72 µM
same,LC50,[26]; read-out: pLC50 (converted),> 100 µM
same,TGI,[26]; read-out: pTGI (converted),20 µM
same,GI50,[27]; read-out: GI50,2.44 µM
same,LC50,[27]; read-out: LC50,> 100 µM
same,TGI,[27]; read-out: TGI,5.82 µM
same,GI50,[27]; read-out: pGI50 (converted),2.45 µM
same,LC50,[27]; read-out: pLC50 (converted),> 100 µM
same,TGI,[27]; read-out: pTGI (converted),5.75 µM
same,Activity,[28],88%
same,Activity,[29],-36%
same,GI50,[30]; read-out: GI50,1.03 µM
same,LC50 (50% lethal concentration),[30]; read-out: LC50,4.96 µM
same,TGI,[30]; read-out: TGI,2.26 µM
same,GI50,[30]; read-out: pGI50 (converted),1.02 µM
same,LC50 (50% lethal concentration),[30]; read-out: pLC50 (converted),5.01 µM
same,TGI,[30]; read-out: pTGI (converted),2.24 µM
same,Activity,[31],97%
same,Activity,[32],96%

# — ChEMBL document CHEMBL3580659, “One-pot multicomponent synthesis of indole incorporated thiazolylcoumarins and their antibacterial, anticancer and DNA cleavage studies” (2015)
